What is called IC50 is the point on the concentration scale where inhibition reaches its midpoint.

Each structure is given as a SMILES string.

IC50 data for nine molecules are collected here from patent publication US7855205B2, “Pyrimidinyl substituted fused-pyrrolyl compounds useful in treating kinase disorders” (Janssen Pharmaceutica NV, priority 2004, dated 2010).

One experiment addresses T1, CDK1:Cyclin-B (Homo sapiens, UniProt P06493).
T1 construct: purchased New England Biolabs, Beverly, Mass; 6020; host or cells: insect cells
Put plainly: CDK1 Screening Assay. The settings on record: 33P-γ-ATP incorporation, 10 μM ATP. In kind it is biochemical. How it is done:
(§1) A kinase reaction mixture was prepared containing 50 mM Tris-HCl pH=8, 10 mM MgCl2, 0.1 mM […], 1 mM DTT, 10 μM ATP, 0.025 μM biotinylated histone-HI peptide substrate and […] per well ^33P-γ-ATP (2000-3000 Ci/mmol). 70 μL of the kinase reaction mixture was dispensed into the well of a streptavidin coated FlashPlate™ (Cat. # SMP103, NEN, Boston, Mass.). Then 1 μL of test compound stock in 100% DMSO was added to the wells resulting in a final concentration of 1% DMSO in the reaction with a 100 μL final reaction volume.
(§2) The CDK1:Cyclin-B protein was then diluted in 50 mM Tris-HCl pH=8.0, 0.1% BSA at a concentration of 1 ng per μL and 30 μL (30 ng enzyme per test well) was added to each well to initiate the reaction. The reaction was incubated for one hour at 30° C. At the end of the 1 h incubation, the reaction was terminated by aspirating the mixture from the plate and washing the wells twice with PBS containing 100 mM EDTA. The histone-H1 biotinylated peptide substrate became immobilized on the Flashplate™ and the incorporation of ^33P-γ-ATP was measured by reading the plate on a scintillation counter. Inhibition of the enzymatic activity of CDK1 was measured by observing a reduced amount of ^33P-γ-ATP incorporated into the immobilized peptide.
The CDK1 used was isolated from insect cells expressing both the human CDK1 catalytic subunit and its positive regulatory subunit cyclin B (New England Biolabs, Beverly, Mass., Cat. #6020).
(§3) • VEGF-R2, HER2 and (Biotin)[…]-Amide • RET kinases • CDK1 (Biotin)[…]-Amide • Aurora-A kinase Biotin-[…]-Amide

A further experiment deals with T2, VEGF-R2 (Rattus norvegicus, UniProt O08775).
T2 construct: polyhistidine (N)
Put plainly: VEGF-R2 Screening Assay. It counts as biochemical. The settings on record: 33P-γ-ATP incorporation, 10 μM ATP. As to the method:
as §2, with “Then 1 μL of test compound stock in 100% DMSO was added to the wells resulting in a final concentration of 1% DMSO in the reaction with a 100 μL final reaction volume. The CDK1:Cyclin-B” for “The CDK1:Cyclin-B”, “immobilized peptide. The VEGF-R kinase assay was carried out using the CDK kinase assay procedure except that the enzyme was replaced with the VEGF-R2 fusion protein containing a polyhistidine tag at the N-terminus followed by amino acids 786-1343 of the rat VEGF-R2 kinase domain (GenBank Accession #U93306).” for “immobilized peptide.”

In the next experiment the target is T3, Aurora-A (Mus musculus, UniProt P97477).
T3 construct: made in house; host or cells: sf9 insect cells
T3 sequence (P97477 1-395): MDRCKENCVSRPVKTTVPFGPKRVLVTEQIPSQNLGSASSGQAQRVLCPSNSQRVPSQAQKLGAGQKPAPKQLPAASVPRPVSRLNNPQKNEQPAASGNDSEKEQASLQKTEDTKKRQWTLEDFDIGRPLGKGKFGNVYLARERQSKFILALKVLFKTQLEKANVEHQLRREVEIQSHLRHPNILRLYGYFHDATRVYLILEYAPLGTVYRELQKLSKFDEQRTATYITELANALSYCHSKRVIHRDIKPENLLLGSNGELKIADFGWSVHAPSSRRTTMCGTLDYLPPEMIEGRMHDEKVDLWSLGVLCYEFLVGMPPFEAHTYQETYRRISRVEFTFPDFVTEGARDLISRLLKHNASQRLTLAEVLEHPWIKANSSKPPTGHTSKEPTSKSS
Kind of experiment: Aurora-A Screening Assay. It counts as biochemical, murine. The settings on record: 33P-γ-ATP incorporation, 10 μM ATP. How it is done:
as §1, §2
The Aurora-A kinase assay was carried out using the CDK kinase assay procedure except that the enzyme was replaced with the full length protein encoding the murine Aurora-A (Accession# GB BC014711) expressed and purified from sf9 insect cells.
as §3

Experiment [1] concerns HeLa cervical adenocarcinoma. Put plainly: Inhibition of cell proliferation (14C-thymidine incorporation), HeLa.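 Note: HeLa cells in 96-well scintillating plates, compound for 24 h then 24 h more with 14C-thymidine, counting label built into new DNA against DMSO-only control wells.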 It counts as cell-based. The settings on record: Homo sapiens.
A further experiment has as its system HCT-116 colon carcinoma. Put plainly: Inhibition of cell proliferation (14C-thymidine incorporation), HCT-116. It counts as cell-based. As to conditions: Homo sapiens, HCT-116, HCT116. How it is done: (§4) The ability of a test compound to inhibit the proliferation of cell growth was determined by measuring incorporation of ^14C-labelled thymidine into newly synthesized DNA within the cells. This method was used on cell lines derived from carcinomas originating from several tissues such as HeLa cervical adenocarcinoma (American Type Culture Collection (ATCC), Virginia, Cat. #CCL-2), A375 malignant melanoma (ATCC CRL-1619), HCT-116 colon carcinoma (CCL-247). In this way the effect of a compound on cell growth of cells with many different phenotypes can be determined. Cells were trypsinized and counted and 3000-8000 cells were added to each well of a 96-well CytoStar tissue culture treated scintillating microplate (Amersham #RPNQ0160) in complete medium in a volume of 100 μL. Cells were incubated for 24 hours in complete medium at 37° C. in an atmosphere containing 5% CO2.
(§5) Next, 1 μL of test compound in 100% DMSO was added to the wells of the plate. DMSO only was added to control wells. Cells were incubated for 24 more hours in complete medium at 37° C. in an atmosphere containing 5% CO2. Methyl ^14C-thymidine 56 mCi/mmol (NEN #NEC568 or Amersham #CFA532) was diluted in complete medium and 0.2 uCi/well was added to each well of the CytoStar plate in a volume of 20 μl. The plate was incubated for 24 hours at 37° C. plus 5% CO2 in drug plus ^14C-thymidine. The contents of the plate discarded into a ^14C radioactive waste container by inverting the plate and the plate was washed twice with 200 μL PBS.
(§6) 200 μL of PBS is added to each well. The top of the plate was sealed with a transparent plate sealer and a white plate backing sealer (Packard #6005199) was applied to the bottom of the plate. The degree of methyl ^14C-thymidine incorporation was quantified on a Packard Top Count.
(Uptake of a labelled nucleoside into DNA is a usual measure of proliferation.)

For the next experiment, the system named is A375 malignant melanoma. Put plainly: Inhibition of cell proliferation (14C-thymidine incorporation), A375. It counts as cell-based, human. As to conditions: Homo sapiens, A-375. As to the method: as §4, §5, §6

T1 sequence (P06493 whole entry): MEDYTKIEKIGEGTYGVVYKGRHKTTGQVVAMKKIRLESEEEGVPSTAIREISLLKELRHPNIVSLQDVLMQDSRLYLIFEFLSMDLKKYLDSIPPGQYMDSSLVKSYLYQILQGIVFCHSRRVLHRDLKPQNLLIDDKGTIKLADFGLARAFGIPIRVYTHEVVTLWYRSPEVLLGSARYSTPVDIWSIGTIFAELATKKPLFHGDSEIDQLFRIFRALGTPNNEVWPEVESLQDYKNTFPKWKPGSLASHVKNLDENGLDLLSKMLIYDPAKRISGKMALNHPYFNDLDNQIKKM
T1 sequence (P14635 whole entry partner): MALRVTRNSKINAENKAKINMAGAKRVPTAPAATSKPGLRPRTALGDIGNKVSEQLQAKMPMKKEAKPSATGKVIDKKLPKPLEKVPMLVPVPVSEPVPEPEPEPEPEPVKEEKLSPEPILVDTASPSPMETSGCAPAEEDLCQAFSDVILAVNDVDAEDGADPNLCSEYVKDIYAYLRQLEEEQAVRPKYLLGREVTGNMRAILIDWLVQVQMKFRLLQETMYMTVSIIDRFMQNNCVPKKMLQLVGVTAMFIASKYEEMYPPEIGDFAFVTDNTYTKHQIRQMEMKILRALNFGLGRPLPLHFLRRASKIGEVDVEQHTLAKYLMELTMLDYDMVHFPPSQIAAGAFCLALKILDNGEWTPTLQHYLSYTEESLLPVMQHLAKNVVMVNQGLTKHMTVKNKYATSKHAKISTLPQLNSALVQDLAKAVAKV
T2 sequence (O08775 786-1343): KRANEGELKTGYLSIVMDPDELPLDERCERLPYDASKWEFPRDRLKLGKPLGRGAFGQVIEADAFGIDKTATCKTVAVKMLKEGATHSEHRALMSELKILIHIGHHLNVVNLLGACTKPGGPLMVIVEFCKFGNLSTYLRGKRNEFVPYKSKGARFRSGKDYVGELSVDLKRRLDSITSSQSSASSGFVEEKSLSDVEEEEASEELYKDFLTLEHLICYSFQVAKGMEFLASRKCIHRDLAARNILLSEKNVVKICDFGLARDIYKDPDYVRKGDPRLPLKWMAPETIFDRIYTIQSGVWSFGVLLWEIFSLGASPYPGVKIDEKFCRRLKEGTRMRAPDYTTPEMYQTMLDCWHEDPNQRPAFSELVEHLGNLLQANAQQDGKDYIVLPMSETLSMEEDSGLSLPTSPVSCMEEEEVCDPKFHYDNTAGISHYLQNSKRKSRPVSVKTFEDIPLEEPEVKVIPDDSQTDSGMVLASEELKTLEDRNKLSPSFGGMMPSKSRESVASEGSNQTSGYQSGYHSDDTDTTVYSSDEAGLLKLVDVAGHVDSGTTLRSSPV

On to `NC1CCC(Nc2nccc(-c3c[nH]c4ncccc34)n2)CC1` (mixture of isomers) [Cpd 43, (4-Aminocyclohexyl)-[4-(1H-pyrrolo[2,3-b]pyridin-3-yl)-pyrimidin-2-yl]-amine], for which the IC50 on CDK1:Cyclin-B stood at 0.0066 µM; against VEGF-R2, 2.78 µM; against Aurora-A, 0.262 µM; in experiment [1], 0.00292 µM; in the experiment with HCT-116 colon carcinoma, 0.00297 µM; in the experiment on A375 malignant melanoma, 0.00242 µM.

Regarding `c1cnc2[nH]cc(-c3ccnc(NC4CCCCC4)n3)c2c1` [Cpd 13, Cyclohexyl-[4-(1H-pyrrolo[2,3-b]pyridin-3-yl)-pyrimidin-2-yl]-amine], the IC50 against CDK1:Cyclin-B worked out at 0.014 µM; at VEGF-R2, 2.08 µM; against Aurora-A, 0.263 µM; in experiment [1], 0.031 µM; in the experiment with HCT-116 colon carcinoma it was 0.032 µM; in the experiment with A375 malignant melanoma it was 0.033 µM.

For `c1cnc2[nH]cc(-c3ccnc(NC4CCCC4)n3)c2c1` [Cpd 14, Cyclopentyl-[4-(1H-pyrrolo[2,3-b]pyridin-3-yl)-pyrimidin-2-yl]-amine], the IC50 worked out at 0.088 µM on CDK1:Cyclin-B; 2.23 µM on VEGF-R2; 0.885 µM at Aurora-A; 0.059 µM in experiment [1]; 0.078 µM in the experiment on HCT-116 colon carcinoma; 0.093 µM in the experiment on A375 malignant melanoma.

Take `c1cnc2[nH]cc(-c3ccnc(NC4CCCCCC4)n3)c2c1` [Cpd 15, Cycloheptyl-[4-(1H-pyrrolo[2,3-b]pyridin-3-yl)-pyrimidin-2-yl]-amine]: the concentration for half-maximal inhibition (IC50) was 0.012 µM against CDK1:Cyclin-B; 2.11 µM on VEGF-R2; 0.166 µM against Aurora-A; 0.0082 µM in experiment [1]; 0.00756 µM in the experiment with HCT-116 colon carcinoma; 0.00467 µM in the experiment on A375 malignant melanoma.

Turning to `c1cnc2[nH]cc(-c3ccnc(NCC4CCCCC4)n3)c2c1` [Cpd 16, Cyclohexylmethyl-[4-(1H-pyrrolo[2,3-b]pyridin-3-yl)-pyrimidin-2-yl]-amine], the IC50 against CDK1:Cyclin-B came to 0.151 µM; on VEGF-R2, 10 µM; against Aurora-A, 0.636 µM; in experiment [1], 0.368 µM; in the experiment with HCT-116 colon carcinoma, 0.41 µM; in the experiment with A375 malignant melanoma, 0.604 µM.

In the case of `O[C@H]1CC[C@H](Nc2nccc(-c3c[nH]c4ncccc34)n2)CC1` [Cpd 18, trans-4-[4-(1H-Pyrrolo[2,3-b]pyridin-3-yl)-pyrimidin-2-ylamino]-cyclohexanol], the IC50 on CDK1:Cyclin-B turned out to be 0.0076 µM; on VEGF-R2 it was 1.79 µM; against Aurora-A, 0.335 µM; in experiment [1], 0.00161 µM; in the experiment with HCT-116 colon carcinoma, 0.00225 µM; in the experiment with A375 malignant melanoma, 0.00177 µM.

With `COc1ccc(Nc2nccc(-c3c[nH]c4ncccc34)n2)c(C)c1` [Cpd 27, (4-Methoxy-2-methylphenyl)-[4-(1H-pyrrolo[2,3-b]pyridin-3-yl)-pyrimidin-2-yl]-amine], the IC50 against CDK1:Cyclin-B was determined as 0.002 µM; on VEGF-R2, 1 µM; on Aurora-A, 0.357 µM; in experiment [1], 0.0072 µM; in the experiment with HCT-116 colon carcinoma, 0.00639 µM; in the experiment on A375 malignant melanoma it was 0.0045 µM.

Consider `Brc1ccccc1Nc1nccc(-c2c[nH]c3ncccc23)n1` [Cpd 28, (2-Bromophenyl)-[4-(1H-pyrrolo[2,3-b]pyridin-3-yl)-pyrimidin-2-yl]-amine], for which the IC50 at CDK1:Cyclin-B was determined as 0.0127 µM; against VEGF-R2 it was 1 µM; on Aurora-A, 0.175 µM; in experiment [1], 0.0952 µM; in the experiment on HCT-116 colon carcinoma it was 0.118 µM; in the experiment with A375 malignant melanoma it was 0.0676 µM.

With `FC(F)(F)c1ccccc1Nc1nccc(-c2c[nH]c3ncccc23)n1` [Cpd 29, (2-trifluoromethylphenyl)-[4-(1H-pyrrolo[2,3-b]pyridin-3-yl)-pyrimidin-2-yl]-amine], the IC50 against CDK1:Cyclin-B worked out at 0.056 µM; on VEGF-R2, 1.97 µM; at Aurora-A, 1 µM; in experiment [1], 0.392 µM; in the experiment with HCT-116 colon carcinoma, 0.381 µM; in the experiment with A375 malignant melanoma it was 0.403 µM.
